According to paper PMC7144554, “2-(Arylamino)-6-(trifluoromethyl)nicotinic Acid Derivatives: New HIV-1 RT Dual Inhibitors Active on Viral Replication” (Molecules, 2020):
“And” between values parts separate entries of the source, which are not always exact repeats. Identical values can stand only once.

Legend:
[1] = target: T1, A502F RT RNase H function (Human immunodeficiency virus type 1 group M subtype B, UniProt P04585, A1089F); experiment: RNase H activity of mutated RT A502F; assay type: biochemical, HIV-1
T1 construct: Amino acid substitutions were introduced into the p66 HIV-1 RT subunit coded in a p6HRT-prot plasmid; made in house; host or cells: Escherichia coli strain M15
Protocol: (§1) Amino acid substitutions were introduced into the p66 HIV-1 RT subunit coded in a p6HRT-prot plasmid using the QuikChange protocol (Agilent Technologies Inc., Santa Clara, CA).
(§2) The RT-associated RNase H activity of wt and mutated HIV RTs was measured as described, in 100 µL reaction volume containing 50 mM Tris HCl pH 7.8, 6 mM MgCl2, 1 mM dithiothreitol (DTT), 80 mM KCl, hybrid RNA/DNA (5’-[…]-3’-Fluorescein, 5’-[…]-3’-Dabcyl), and different amounts of enzymes according to a linear range of dose-response curve—20 ng of wt RT; 50 ng K103N RT; 100 ng V108A RT; 4 ng Y181C RT; 100 ng Q475A RT; 100 ng A502F RT. The reaction mixture was incubated for 1 h at 37 °C, the reaction was stopped by addition of EDTA and products were measured with a Victor 3 (Perkin) at 490/528 nm.

HIV-1 IIIB strain = experiment: Antiviral assay, HIV-1 replication in TZMbl cells (luciferase); assay type: cell-based; settings: Human immunodeficiency virus 1, TZM-bl; TZMbl cells, HIV-1 IIIB; read-out: HIV-1 EC50 TZMbl Cells
Protocol: Drug-mediated inhibition of virus-induced cytotoxicity was assayed in TZM-BL cells. […] Serial dilutions of drugs were added immediately after infection. Luciferase activity was measured as reported [67]. Two days after infection, the culture medium was removed from each well and 100 µl of Bright Glo reagent (Promega, Luis Obispo, CA) was added to the cells for measurement of luminescence using a Victor 2 luminometer (Perkin). […] Cell viability in CEM cells was quantified 5 days after infection with the MTT-dye reduction method.

[2] = target: T2, V108A RT RNase H function (Human immunodeficiency virus type 1 group M subtype B, UniProt P04585, V695A); experiment: RNase H activity of mutated RT V108A; assay type: biochemical, HIV-1
T2 construct: Amino acid substitutions were introduced into the p66 HIV-1 RT subunit coded in a p6HRT-prot plasmid; made in house; host or cells: Escherichia coli strain M15
Protocol: as §1, §2

[3] = target: T3, HIV-1 RT-associated RDDP activity (wt RT) (Human immunodeficiency virus type 1 group M subtype B, UniProt P04585); experiment: biochemical
T3 construct: RT is a heterodimeric (p66/p51) multifunctional enzyme; made in house; host or cells: Escherichia coli strain M15
Protocol: p6HRT-prot vector was kindly provided by Dr. Stuart Le Grice Laboratory. Heterodimeric RT was expressed essentially as described [42]. Briefly, Escherichia coli strain M15 containing the p6HRT-prot vector were grown up to an OD600 of 0.7 and induced with isopropyl β-D-1-thiogalactopyranoside (IPTG) 1.7 mM for 4 h. Cell pellets were resuspended in Lysis buffer (50 mM sodium phosphate pH 7.8, 0.5 mg/mL lysozyme), incubated on ice for 20 min, added 0.3 M final NaCl, sonicated and centrifuged at 30,000× g for 1 h. The supernatant was loaded into a Ni^2+-sepharose column pre-equilibrated with loading buffer (50 mM sodium phosphate pH 7.8, 0.3 M NaCl, 10% glycerol, 10 mM imidazole) and washed thoroughly with wash buffer (50 mM sodium phosphate pH 6.0, 0.3 M NaCl, 10% glycerol, 80 mM imidazole). RT was gradient-eluted with elute buffer (wash buffer with 0.5 M imidazole). Fractions were collected, protein purity was checked by SDS-PAGE and found to be higher than 90%. […] Catalytic activities and protein concentration were determined. […]
The HIV-1 RT-associated RDDP activity was measured as described [66]. […]

K103N RT RDDP activity = target: T4, K103N RT RDDP activity (Human immunodeficiency virus type 1 group M subtype B, UniProt P04585, K690N); experiment: biochemical; parameters: species or system HIV-1
T4 construct: Amino acid substitutions were introduced into the p66 HIV-1 RT subunit coded in a p6HRT-prot plasmid; made in house; host or cells: Escherichia coli strain M15
Protocol: (§4) The HIV-1 RT-associated RDDP activity was measured as described [66]. Briefly, in 25 µL volume containing 60 mM Tris-HCl pH 8.1, 8 mM MgCl2, 60 mM KCl, 13 mM DTT, poly(A)-oligo(dT), 100 µM dTTP, and 6 ng wt RT (or 21 ng K103N RT; 30 ng V108A RT; 1,5 ng Y181C RT; 21 ng Q475A RT; 15 ng A502F RT).

[4] = target: T5, Q475A RT RNase H function (Human immunodeficiency virus type 1 group M subtype B, UniProt P04585, Q1062A); experiment: RNase H activity of mutated RT Q475A; assay type: biochemical, HIV-1
T5 construct: Amino acid substitutions were introduced into the p66 HIV-1 RT subunit coded in a p6HRT-prot plasmid; made in house; host or cells: Escherichia coli strain M15
Protocol: as §1, §2

CEM cells = experiment: Cell viability in CEM cells (MTT); assay type: cell-based; settings: highest concentration tested
Protocol: (§3) Drug-mediated inhibition of virus-induced cytotoxicity was assayed in TZM-BL cells. Triplicate wells of 96-well plates containing 1 × 10^4 TZMbl cells were infected with HIV-1 IIIB strain at a multiplicity of infection of 0.1. Serial dilutions of drugs were added immediately after infection. Luciferase activity was measured as reported. Two days after infection, the culture medium was removed from each well and 100 µl of Bright Glo reagent (Promega, Luis Obispo, CA) was added to the cells for measurement of luminescence using a Victor 2 luminometer (Perkin). The 50% effective concentration (EC50) was defined as the concentration that caused a 50% reduction of luciferase activity (relative light units) compared to virus control wells. Cell viability in CEM cells was quantified 5 days after infection with the MTT-dye reduction method.

[5] = Cell viability in CEM cells (MTT); assay type: cell-based; settings: human, MTT, 5 days
Protocol: as §3

[6] = target: T6, Y181C RT RNase H function (Human immunodeficiency virus type 1 group M subtype B, UniProt P04585, Y768C); experiment: RNase H activity of mutated RT Y181C; assay type: biochemical, HIV-1
T6 construct: Amino acid substitutions were introduced into the p66 HIV-1 RT subunit coded in a p6HRT-prot plasmid; made in house; host or cells: Escherichia coli strain M15
Protocol: as §1, §2

TZMbl cells = experiment: Cytotoxicity in TZMbl cells; assay type: cell-based; settings: highest concentration tested
[7] = Cytotoxicity in TZMbl cells; assay type: cell-based; settings: human
[8] = target: T7, K103N RT RNase H function (Human immunodeficiency virus type 1 group M subtype B, UniProt P04585, K690N); experiment: RNase H activity of mutated RT K103N; assay type: biochemical, HIV-1
T7 construct: Amino acid substitutions were introduced into the p66 HIV-1 RT subunit coded in a p6HRT-prot plasmid; made in house; host or cells: Escherichia coli strain M15
Protocol: as §1, §2

A502F RT RDDP activity = target: T8, A502F RT RDDP activity (Human immunodeficiency virus type 1 group M subtype B, UniProt P04585, A1089F); experiment: biochemical; parameters: species or system HIV-1
T8 construct: Amino acid substitutions were introduced into the p66 HIV-1 RT subunit coded in a p6HRT-prot plasmid; made in house; host or cells: Escherichia coli strain M15
Protocol: as §4

[9] = target: T9, HIV-1 RT-associated RNase H activity (wt RT) (Human immunodeficiency virus type 1 group M subtype B, UniProt P04585); experiment: HIV-1 DNA polymerase-independent RNase H activity, wt RT; assay type: biochemical; settings: RNase H IC50, wt RT
T9 construct: RT is a heterodimeric (p66/p51) multifunctional enzyme; made in house; host or cells: Escherichia coli strain M15
Protocol: p6HRT-prot vector was kindly provided by Dr. Stuart Le Grice Laboratory. Heterodimeric RT was expressed essentially as described. Briefly, Escherichia coli strain M15 containing the p6HRT-prot vector were grown up to an OD600 of 0.7 and induced with isopropyl β-D-1-thiogalactopyranoside (IPTG) 1.7 mM for 4 h. Cell pellets were resuspended in Lysis buffer (50 mM sodium phosphate pH 7.8, 0.5 mg/mL lysozyme), incubated on ice for 20 min, added 0.3 M final NaCl, sonicated and centrifuged at 30,000× g for 1 h. The supernatant was loaded into a Ni^2+-sepharose column pre-equilibrated with loading buffer (50 mM sodium phosphate pH 7.8, 0.3 M NaCl, 10% glycerol, 10 mM imidazole) and washed thoroughly with wash buffer (50 mM sodium phosphate pH 6.0, 0.3 M NaCl, 10% glycerol, 80 mM imidazole). RT was gradient-eluted with elute buffer (wash buffer with 0.5 M imidazole). Fractions were collected, protein purity was checked by SDS-PAGE and found to be higher than 90%. RT containing fractions were pooled and diluted 1:1 with dilute buffer (50 mM sodium phosphate pH 7.0, 10% glycerol) then loaded into a Hi-trap Heparine HP GE (Healthcare Lifescience) pre-equilibrated with 10-column volume of loading buffer 2 (50 mM sodium phosphate pH 7.0, 10% glycerol, 150 mM NaCl). Column was then washed with loading buffer 2 and RT was gradient-eluted with elute buffer 2 (50 mM sodium phosphate pH 7.0, 10% glycerol, 150 mM NaCl). Fractions were collected, protein was dialyzed and stored in buffer containing 50 mM Tris HCl pH 7.0, 25 mM NaCl, 1 mM EDTA, 50% glycerol. Catalytic activities and protein concentration were determined. Enzyme-containing fractions were pooled and aliquots were stored at −80 °C.
as §2

V108A RT RDDP activity = target: T10, V108A RT RDDP activity (Human immunodeficiency virus type 1 group M subtype B, UniProt P04585, V695A); experiment: biochemical; parameters: species or system HIV-1
T10 construct: Amino acid substitutions were introduced into the p66 HIV-1 RT subunit coded in a p6HRT-prot plasmid; made in house; host or cells: Escherichia coli strain M15
Protocol: as §4

Y181C RT RDDP activity = target: T11, Y181C RT RDDP activity (Human immunodeficiency virus type 1 group M subtype B, UniProt P04585, Y768C); experiment: biochemical; parameters: species or system HIV-1
T11 construct: Amino acid substitutions were introduced into the p66 HIV-1 RT subunit coded in a p6HRT-prot plasmid; made in house; host or cells: Escherichia coli strain M15
Protocol: as §4

Q475A RT RDDP activity = target: T12, Q475A RT RDDP activity (Human immunodeficiency virus type 1 group M subtype B, UniProt P04585, Q1062A); experiment: biochemical; parameters: species or system HIV-1
T12 construct: Amino acid substitutions were introduced into the p66 HIV-1 RT subunit coded in a p6HRT-prot plasmid; made in house; host or cells: Escherichia coli strain M15
Protocol: as §4

## COc1cc(OC)cc(OC(=O)c2ccc(C(F)(F)F)nc2Nc2cc(Cl)ccc2C)c1 [Compound 21]
[1]
  IC50: > 100 µM
[1]; A502F RT
  RNase H IC50: completely lost its RNase H inhibitory efficacy
[1]; A502F RT, vs wt RT
  RNase H Fold: >6.8
HIV-1 IIIB strain
  EC50: 5 ± 0.8 µM
[2]
  IC50: > 100 µM
[2]; V108A RT
  RNase H IC50: completely lost its RNase H inhibitory efficacy
[3]
  IC50: 16.1 ± 1.2 µM
K103N RT RDDP activity
  IC50: 16.5 ± 4.8 µM
[4]
  IC50: > 100 µM
[4]; Q475A RT
  RNase H IC50: completely lost its RNase H inhibitory efficacy
[4]; Q475A RT, vs wt RT
  RNase H Fold: >6.8
CEM cells
  percentage of cells viability in presence of the highest concentration of inhibitor tested, CEM cells: 100%
[5]
  CC50 at 5 days: > 50 µM
[6]
  IC50: 11.9 ± 1.4 µM
TZMbl cells
  percentage of cells viability in presence of the highest concentration of inhibitor tested, TZMbl: 59%
[7]
  CC50: > 50 µM
[8]
  IC50: 53.9 ± 2.2 µM
A502F RT RDDP activity
  IC50: 8 ± 0.7 µM
A502F RT RDDP activity; A502F RT, IC50 mutated RT / IC50 wt RT
  RDDP Fold: 0.5
[9]
  IC50: 14 µM and 14.7 µM
V108A RT RDDP activity
  IC50: 82.8 ± 6.3 µM
Y181C RT RDDP activity
  IC50: 22.5 ± 5.3 µM
Q475A RT RDDP activity
  IC50: 17 ± 4.5 µM
